Laboratory results as given in PubChem BioAssay AID248 (DTP/NCI, 2004).
Toxic doses and inconclusive results are not listed. Rule as the data show it: active = T/C of 150% or more; inactive = T/C below 125%.

Tested on: L1210 leukemia ip in BDF1 mice, survival T/C
Assay: NCI In Vivo Anticancer Drug Screen. Data for tumor model L1210 Leukemia (intraperitoneal) in B6D2F1 (BDF1) mice
Settings: endpoint: mean survival time, higher = longer survival
In short: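 Ratio derived from survival: compound-dosed mice over vehicle-dosed mice, all bearing a transplantable tumor.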

[1] = dose: 100.0 mg/kg/injection, schedule: Q04DX003 (ip), vehicle: saline with Tween-80
[2] = dose: 200.0 mg/kg/injection, schedule: Q04DX003 (ip), vehicle: saline with Tween-80
[3] = dose: 400.0 mg/kg/injection, schedule: Q04DX003 (ip), vehicle: saline with Tween-80
[4] = dose: 50.0 mg/kg/injection, schedule: Q01DX009 (ip), vehicle: saline with Tween-80
[5] = dose: 100.0 mg/kg/injection, schedule: Q01DX009 (ip), vehicle: saline with Tween-80
[6] = dose: 200.0 mg/kg/injection, schedule: Q01DX009 (ip), vehicle: saline with Tween-80
[7] = dose: 200.0 mg/kg/injection, schedule: Q04DX002 (ip), vehicle: saline with Tween-80
[8] = dose: 400.0 mg/kg/injection, schedule: Q04DX002 (ip), vehicle: saline with Tween-80
[9] = dose: 12.5 mg/kg/injection, schedule: Q04DX003 (ip), vehicle: saline with Tween-80
[10] = dose: 25.0 mg/kg/injection, schedule: Q04DX003 (ip), vehicle: saline with Tween-80
[11] = dose: 400.0 mg/kg/injection, schedule: Q01DX009 (ip), vehicle: saline with Tween-80
[12] = dose: 100.0 mg/kg/injection, schedule: Q01DX009 (ip), vehicle: saline
[13] = dose: 100.0 mg/kg/injection, schedule: Q01DX009 (ip), vehicle: Klucel (hydroxypropylcellulose) (HPC)
[14] = dose: 200.0 mg/kg/injection, schedule: Q01DX009 (ip), vehicle: Klucel (hydroxypropylcellulose) (HPC)
[15] = dose: 400.0 mg/kg/injection, schedule: Q01DX009 (ip), vehicle: Klucel (hydroxypropylcellulose) (HPC)

Measured: T/C

Clc1ccc(/C=N/Nc2nc3ccccc3s2)c(Cl)c1
inactive: [1] 93 % of control | dose: 111.0 mg/kg/injection, schedule: Q01DX Z (ip), vehicle: methylcellulose (MC) 105 % of control | dose: 166.0 mg/kg/injection, schedule: Q01DX Z (ip), vehicle: methylcellulose (MC) 98 % of control | [2] 93 % of control | dose: 250.0 mg/kg/injection, schedule: Q01DX Z (ip), vehicle: methylcellulose (MC) 103 % of control | [3] 93 % of control

CCOCC(=O)CC1=CCCCC1
inactive: [4] 94 % of control | [5] 102 % of control | [6] 94 % of control

C[N+](C)(C)CCCCCC[Si](C)(C)C
inactive: dose: 5.0 mg/kg/injection, schedule: Q01DX001 (ip), vehicle: saline 110 % of control | dose: 10.0 mg/kg/injection, schedule: Q01DX001 (ip), vehicle: saline 108 % of control | dose: 20.0 mg/kg/injection, schedule: Q01DX001 (ip), vehicle: saline 104 % of control | dose: 40.0 mg/kg/injection, schedule: Q01DX001 (ip), vehicle: saline 108 % of control

COc1ccc(C(O)SP(=S)(OC)c2ccc(OC)cc2)cc1 (centres undefined)
inactive: [4] 100 % of control | [5] 100 % of control | [1] 92 % of control | [6] 95 % of control | [2] 88 % of control

C=C1C(=O)OCC2(C)CCCCC12 (centres undefined)
inactive: dose: 10.0 mg/kg/injection, schedule: Q04DX003 (ip), vehicle: saline 101 % of control | dose: 20.0 mg/kg/injection, schedule: Q04DX003 (ip), vehicle: saline 116 % of control

O=C(Cl)C12CCC(CC1)C1CCC2CC1
inactive: dose: 100.0 mg/kg/injection, schedule: Q04DX003 (ip), vehicle: saline 86 % of control | dose: 200.0 mg/kg/injection, schedule: Q04DX003 (ip), vehicle: saline 92 % of control | dose: 400.0 mg/kg/injection, schedule: Q04DX003 (ip), vehicle: saline 97 % of control

Nc1nc(N)nc(CCN2CCCCC2)n1
inactive: dose: 6.25 mg/kg/injection, schedule: Q01DX001 (ip), vehicle: saline with Tween-80 94 % of control | dose: 12.5 mg/kg/injection, schedule: Q01DX001 (ip), vehicle: saline with Tween-80 102 % of control | dose: 25.0 mg/kg/injection, schedule: Q01DX001 (ip), vehicle: saline with Tween-80 102 % of control

Clc1ccc(CNc2ccc(Cl)c(Cl)c2)cc1
inactive: [7] 92 % of control | [8] 89 % of control

O=C(/C=C/c1ccccn1)c1ccccc1O
inactive: [9] 92 % of control | [10] 100 % of control | dose: 50.0 mg/kg/injection, schedule: Q04DX003 (ip), vehicle: saline with Tween-80 92 % of control

COC(=O)C1CC2C(CCC3C(C)(C(=O)OC)CCCC23C)C(=O)C1(O)C(C)C (centres undefined)
inactive: [5] 95 % of control | [6] 90 % of control | [11] 91 % of control

Cc1cc(N=NC(=N)N)ccc1NN=C(N)N
inactive: dose: 37.5 mg/kg/injection, schedule: Q01DX Z (oral), vehicle: carboxymethylcellulose (CMC) 115 % of control | dose: 75.0 mg/kg/injection, schedule: Q01DX Z (oral), vehicle: carboxymethylcellulose (CMC) 100 % of control | dose: 150.0 mg/kg/injection, schedule: Q01DX Z (oral), vehicle: carboxymethylcellulose (CMC) 96 % of control | dose: 300.0 mg/kg/injection, schedule: Q01DX Z (oral), vehicle: carboxymethylcellulose (CMC) 102 % of control

N#Cc1nc2nc(C(F)(F)F)[nH]c2nc1C#N
inactive: dose: 12.5 mg/kg/injection, schedule: Q01DX009 (ip), vehicle: saline with Tween-80 101 % of control | [9] 120 % of control | dose: 25.0 mg/kg/injection, schedule: Q01DX009 (ip), vehicle: saline with Tween-80 103 % of control | [10] 103 % of control | [4] 93 % of control

CC(=O)NNC(=O)c1ccccc1
inactive: [5] 101 % of control | [12] 106 % of control | [1] 106 % of control | [6] 109 % of control | dose: 200.0 mg/kg/injection, schedule: Q01DX009 (ip), vehicle: saline 113 % of control | [2] 108 % of control | [3] 101 % of control

CCCOC(c1ccc2c(c1)OCO2)C(C)Br (centres undefined)
inactive: [1] 97 % of control | [2] 94 % of control | [3] 94 % of control

C=C1C2CCC3C4(C)CC(OC5OC(CO)C(OS(=O)(=O)O)C(OS(=O)(=O)O)C5OC(=O)CCCC)CC(C(=O)O)(C(=O)O)C4CCC3(C2)C1O (centres undefined)
inactive: dose: 3.12 mg/kg/injection, schedule: Q04DX002 (ip), vehicle: saline 103 % of control | dose: 6.25 mg/kg/injection, schedule: Q04DX002 (ip), vehicle: saline 95 % of control

O=c1oc2cc(N=Cc3ccc4c(c3)OCO4)ccc2c2ccccc12
inactive: dose: 100.0 mg/kg/injection, schedule: Q01DX001 (ip), vehicle: other 91 % of control | dose: 200.0 mg/kg/injection, schedule: Q01DX001 (ip), vehicle: other 93 % of control | dose: 400.0 mg/kg/injection, schedule: Q01DX001 (ip), vehicle: other 90 % of control

COc1ccc(/C=C2\N=C(c3ccc([N+](=O)[O-])cc3)OC2=O)cc1OC
inactive: [13] 91 % of control | [14] 93 % of control | [15] 101 % of control

C[N+]1(CCCl)CCOCC1
inactive: dose: 20.0 mg/kg/injection, schedule: Q01DX009 (ip), vehicle: Klucel (hydroxypropylcellulose) (HPC) 97 % of control | dose: 40.0 mg/kg/injection, schedule: Q01DX009 (ip), vehicle: Klucel (hydroxypropylcellulose) (HPC) 102 % of control

NNC(=O)c1ccc(I)cc1
inactive: dose: 100.0 mg/kg/injection, schedule: Q04DX002 (ip), vehicle: saline with Tween-80 118 % of control | [7] 118 % of control | [8] 107 % of control

Cc1cccc(NC(=O)NCCOC(=O)OCCNC(=O)Nc2cccc(C)c2C)c1C
inactive: [5] 97 % of control | [1] 91 % of control | [6] 98 % of control | [2] 91 % of control | [11] 97 % of control | [3] 106 % of control

O=C(O)/C(=C\CCCC/C=C(\CCO)C(=O)O)CCO
inactive: [13] 102 % of control | dose: 100.0 mg/kg/injection, schedule: Q04DX003 (ip), vehicle: Klucel (hydroxypropylcellulose) (HPC) 94 % of control | [14] 99 % of control | dose: 200.0 mg/kg/injection, schedule: Q04DX003 (ip), vehicle: Klucel (hydroxypropylcellulose) (HPC) 102 % of control | [15] 102 % of control | dose: 400.0 mg/kg/injection, schedule: Q04DX003 (ip), vehicle: Klucel (hydroxypropylcellulose) (HPC) 96 % of control

CN(C)C(=S)Nc1ccccc1
inactive: [12] 114 % of control | dose: 130.0 mg/kg/injection, schedule: Q01DX009 (ip), vehicle: Klucel (hydroxypropylcellulose) (HPC) 98 % of control | [14] 103 % of control

O=C1C=C(c2ccccc2)C(=O)c2ccccc21
inactive: dose: 100.0 mg/kg/injection, schedule: Q01DX001 (ip), vehicle: Klucel (hydroxypropylcellulose) (HPC) 106 % of control | dose: 200.0 mg/kg/injection, schedule: Q01DX001 (ip), vehicle: Klucel (hydroxypropylcellulose) (HPC) 101 % of control | dose: 400.0 mg/kg/injection, schedule: Q01DX001 (ip), vehicle: Klucel (hydroxypropylcellulose) (HPC) 105 % of control
